The source of these data is PMC11984407, “A natural small molecule isoginkgetin alleviates hypercholesterolemia and atherosclerosis by targeting ACLY” (Theranostics, 2025).

One test addresses T1, recombinant ACLY protein (Homo sapiens, UniProt P53396).
T1 sequence (P53396 1-1101): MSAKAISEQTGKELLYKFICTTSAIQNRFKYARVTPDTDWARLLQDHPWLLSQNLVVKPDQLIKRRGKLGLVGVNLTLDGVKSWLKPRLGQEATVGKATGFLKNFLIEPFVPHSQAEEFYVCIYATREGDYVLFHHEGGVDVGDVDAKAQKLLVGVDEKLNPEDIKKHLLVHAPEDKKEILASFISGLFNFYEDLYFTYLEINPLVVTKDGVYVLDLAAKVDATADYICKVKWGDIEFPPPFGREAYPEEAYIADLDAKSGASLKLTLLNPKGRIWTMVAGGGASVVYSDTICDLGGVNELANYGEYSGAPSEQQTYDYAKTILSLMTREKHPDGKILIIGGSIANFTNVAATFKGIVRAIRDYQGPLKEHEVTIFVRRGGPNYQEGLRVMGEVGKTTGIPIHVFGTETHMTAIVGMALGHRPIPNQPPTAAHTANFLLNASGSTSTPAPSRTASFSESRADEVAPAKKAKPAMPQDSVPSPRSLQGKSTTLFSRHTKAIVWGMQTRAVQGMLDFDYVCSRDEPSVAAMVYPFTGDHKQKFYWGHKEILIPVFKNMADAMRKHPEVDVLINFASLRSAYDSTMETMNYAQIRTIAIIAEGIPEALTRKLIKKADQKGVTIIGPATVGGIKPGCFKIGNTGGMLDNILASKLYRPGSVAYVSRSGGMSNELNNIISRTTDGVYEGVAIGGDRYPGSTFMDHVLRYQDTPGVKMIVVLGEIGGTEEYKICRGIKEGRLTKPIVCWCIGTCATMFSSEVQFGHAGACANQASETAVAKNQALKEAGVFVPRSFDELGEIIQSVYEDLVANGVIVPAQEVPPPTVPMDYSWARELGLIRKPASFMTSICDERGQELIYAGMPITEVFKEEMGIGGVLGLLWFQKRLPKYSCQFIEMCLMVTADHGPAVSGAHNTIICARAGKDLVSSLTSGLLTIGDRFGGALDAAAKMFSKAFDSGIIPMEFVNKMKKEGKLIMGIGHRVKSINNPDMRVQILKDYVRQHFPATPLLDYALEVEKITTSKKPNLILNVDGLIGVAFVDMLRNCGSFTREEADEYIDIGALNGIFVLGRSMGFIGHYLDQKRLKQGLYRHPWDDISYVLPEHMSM
Put plainly: Surface plasmon resonance (OpenSPR). Particulars: SPR, 1:1 Langmuir model; read-out: equilibrium dissociation constant (KD). The class given is binding. The procedure: The interaction between isoginkgetin and ACLY was examined using an OpenSPR instrument (Nicaya, Canada). The recombinant ACLY protein was immobilized on a carboxyl sensor chip (SEN-AU-100-3-COOH; Nicaya, Canada) via a standard amine coupling method. Isoginkgetin was injected into the running buffer at various concentrations (ranging from 0.5 to 8 μM) at a flow rate of 20 μL/min. The interaction parameter KD was determined using TraceDrawer evaluation software based on the 1:1 Langmuir binding model.
On the technique in general: SPR reads the build-up and loss of mass on a sensor chip optically.

In the next test the target is T2, ACLY (Mus musculus, UniProt Q91V92).
T2 sequence (Q91V92 1-1091): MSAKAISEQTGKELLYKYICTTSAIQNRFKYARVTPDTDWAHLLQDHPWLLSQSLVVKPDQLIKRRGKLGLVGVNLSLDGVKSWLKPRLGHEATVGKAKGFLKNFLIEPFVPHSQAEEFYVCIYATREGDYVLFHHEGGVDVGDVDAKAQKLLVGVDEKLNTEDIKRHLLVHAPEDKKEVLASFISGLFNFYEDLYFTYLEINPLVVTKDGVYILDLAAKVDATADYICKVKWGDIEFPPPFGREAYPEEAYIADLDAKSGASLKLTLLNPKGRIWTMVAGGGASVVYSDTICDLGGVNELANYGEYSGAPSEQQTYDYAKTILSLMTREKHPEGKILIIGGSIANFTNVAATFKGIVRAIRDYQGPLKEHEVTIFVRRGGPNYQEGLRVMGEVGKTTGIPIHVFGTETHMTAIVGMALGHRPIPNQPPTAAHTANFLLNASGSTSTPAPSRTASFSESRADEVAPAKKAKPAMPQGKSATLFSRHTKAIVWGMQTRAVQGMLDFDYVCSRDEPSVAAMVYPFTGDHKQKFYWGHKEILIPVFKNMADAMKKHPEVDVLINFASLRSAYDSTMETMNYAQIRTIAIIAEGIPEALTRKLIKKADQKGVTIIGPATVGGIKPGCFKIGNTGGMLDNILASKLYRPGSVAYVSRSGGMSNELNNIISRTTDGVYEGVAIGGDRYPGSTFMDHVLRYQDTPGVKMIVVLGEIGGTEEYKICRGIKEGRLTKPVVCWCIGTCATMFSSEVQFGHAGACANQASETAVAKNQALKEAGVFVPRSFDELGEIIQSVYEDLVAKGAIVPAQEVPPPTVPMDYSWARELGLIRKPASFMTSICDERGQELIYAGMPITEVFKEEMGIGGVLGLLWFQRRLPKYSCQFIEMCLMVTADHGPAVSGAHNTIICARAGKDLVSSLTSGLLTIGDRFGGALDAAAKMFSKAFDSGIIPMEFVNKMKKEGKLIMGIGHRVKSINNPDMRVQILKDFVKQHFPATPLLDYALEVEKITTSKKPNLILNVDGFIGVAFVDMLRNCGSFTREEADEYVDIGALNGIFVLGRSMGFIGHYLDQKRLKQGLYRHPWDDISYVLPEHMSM
Put plainly: ACLY activity in vivo, mouse liver extracts (MDH-coupled method). Set-up: from tissue; host or cells: liver of Apoe-/- mice dosed with ISOGK. Particulars: male and female Apoe-/- mice, 20 mg/kg/day, 8 weeks. The procedure:
The activity of the ACLY enzyme was assayed utilizing malate dehydrogenase (MDH)-coupled method kits (BC4240, Solarbio, Beijing, China). In summary, liver extracts were incubated in a reaction buffer comprising 20 mM citrate, 10 mM MgCl₂, 10 mM DTT, 0.5 U/ml of malic dehydrogenase, 0.33 mM CoASH, and 0.14 mM NADH, both in the presence and absence of 5 mM ATP. The quantity of oxaloacetate produced by ACLY catalysis was determined by measuring the alteration in absorbance at 340 nm, which corresponds to the depletion of NADH during the MDH-catalyzed reaction. After accounting for background variations in absorbance in the absence of ATP, the relative ACL activities were computed by normalizing the data to the weight of the liver tissue.

SMILES strings stand for the structures.

Take `COc1ccc(-c2cc(=O)c3c(O)cc(O)c(-c4cc(-c5cc(=O)c6c(O)cc(O)cc6o5)ccc4OC)c3o2)cc1` [ISOGK, Isoginkgetin]: the Kd – broadly, a measure of binding affinity in units of concentration – on recombinant ACLY protein was 5.1 µM. For the same molecule, the “ACLY enzyme activity in liver tissue” value on ACLY was “significantly inhibits ACLY activity”.
